Results on one compound are retold here after patent publication US9144569B2, “Methods of administering an aromatase inhibitor, prostaglandin and GnRH for regulating ovulation in cattle” (UNIVERSITY OF SASKATCHEWAN, priority 2010, dated 2015).

Holding throughout (assay type): in vivo, cattle
The nature of series [1]: Example II: plasma letrozole concentration during 3-day regimen (HPLC/MS). The note with it: for plasma letrozole concentration, overall mean: 85 μg/kg/day iv. The method, then: Four days after follicular ablation, heifers were given 500 μg of cloprostenol (PGF, Estrumate, Schering-Plough Animal Health, Pointe-Claire, QC, Canada) intramuscularly (im) to induce regression of the CL and to synchronize ovulation. The experiment was performed in two replicates (n=20-27 per replicate) and each heifer was used only once. In replicate 1, heifers were assigned randomly at the time of ovulation (Day 0) to the following groups and given a 3-day regimen of letrozole from Days 1 to 3 (n=5), Days 3 to 5 (n=5), Days 5 to 7 (n=5), or no treatment (control group, n=5). In replicate 2, heifers were similarly assigned to groups and given letrozole from Days 1 to 3, (n=5), Days 3 to 5 (n=4), or Days 5 to 7 (n=4), but untreated control heifers were arranged in three sub-groups to serve as contemporaneous controls for each letrozole-group during intensive blood sampling periods (i.e., control Days 1 to 3, n=4; control Days 3 to 5, n=4; and control Days 5 to 7, n=5). For practical purposes, the total dose of letrozole (250 μg/kg) was calculated on the basis of an average weight of 350 kg for all heifers and administered intravenously in daily divided doses over 3 days (85 μg/kg per day). For intravenous injection, letrozole was prepared in 95% ethanol to a final concentration of 5 mg/ml, resulting in an injection volume of 6 mL/day.
Blood samples were collected by jugular or coccygeal venipuncture into 10 ml heparinised, vacuum tubes (Vacutainer tubes; Becton Dickinson Vacutainer Systems, Franklin Lakes, N.J., USA). Blood samples were collected daily from pre-treatment ovulation to post-treatment ovulation. In replicate 1, additional samples were collected from letrozole-treated heifers every 12 hours from the beginning of treatment to first wave emergence. In replicate 2, heifers were sampled at 15 minute intervals for the first 8 hours after the second dose of letrozole (i.e., second day of treatment) using an indwelling jugular catheter, as described previously. Blood samples were centrifuged at 1500×g for 20 minutes, and plasma was separated and stored in plastic tubes at −20° C.
Plasma concentrations of letrozole were determined from samples collected every 12 hours from pre-treatment to one day after cessation of treatment using high performance liquid chromatographytandem mass spectrometry (HPLC/MS) as described in Chapter 4, Section 4.3.6.

In series [2] the test system is plasma estradiol. The series can be described thus: Example II: plasma estradiol during 3-day letrozole regimen. To be noted: 3-day regimen, regardless of stage of follicular development.
Method: Plasma estradiol concentrations were determined in duplicate by enzyme-linked immunosorbent assay (Cayman Chemical Company, Ann Arbor, Mich., USA). In this competitive ELISA, plasma steroid competes with acetylcholinesterase labelled steroid for the binding site on the polyclonal rabbit anti-steroid antibody. The antiserum to estradiol was reported to cross-react with estradiol-3-glucoronide (14%), estrone (12%), and estriol (0.3%). For all other steroids cross-reactivities were reported as <0.1%. The minimum and maximum values along the standard curve were 6.6 and 4000 pg/well, respectively. The intra- and inter-assay coefficients of variation for reference samples assayed in duplicate were 11.7% and 12.7, respectively.
For the same reasons, estradiol concentrations were transformed to a percentage of the mean concentration of two pre-treatment data points (i.e. for each individual heifer before statistical analysis.
In series [3] the test system is plasma LH. As to the kind of experiment: Example I: plasma LH by double-antibody radioimmunoassay after single iv dose. To be noted: for plasma LH concentrations compared to saline-treated controls: doses combined. The method, then:
(§1) Heifers in which a CL was detected during the initial examination were given […] cloprostenol (PGF, Estrumate™, Schering-Plough Animal Health, Pointe-Claire, QC, Canada) intramuscularly (im) to induce regression of the CL and to synchronize ovulation. Heifers were examined daily by transrectal ultrasonography to detect ovulation. Transvaginal ultrasound-guided follicular aspiration of follicles ≧5 mm was performed five to eight days after ovulation to synchronize wave emergence. Heifers were examined daily by transrectal ultrasonography to detect follicular wave emergence, which was expected 1 to 1.5 days after follicular ablation. Four days after follicular ablation (approximately 2.5 days after follicular wave emergence), and at the time follicular dominance becomes apparent, heifers were assigned randomly to the following treatment groups and given a single intravenous dose of 1) 500 μg/kg of letrozole (high dose group, n=9), 2) 250 μg/kg of letrozole (medium dose group, n=10), 3) 125 μg/kg of letrozole (low dose group, n=10), or 4) 20 ml of phosphate buffered saline (PBS control group, n=10). For practical purposes, the dose of letrozole was calculated based on an average weight of 400 kg for all heifers. The average oral dose used in women (2.5-5 mg per day for 5 days) was used to estimate the medium dose for cattle. The high and low doses were set as double and half the medium dose, respectively. The day of treatment was defined as Day 0. For intravenous injection, letrozole was prepared in 95% ethanol at a final concentration of 5 mg per ml, resulting in an injection volume of 10-40 ml. The experiment was performed in four replicates (n=2-3 per group per replicate) and each heifer was used only once.
(§2) Statistical analyses were done using the Statistical Analysis System software package (SAS Learning Edition 9.1, 2006; SAS Institute Inc., Cary, N.C., USA). Time-series hormone data, plasma letrozole concentration, and follicular diameter profiles were analyzed by repeated measures, using the PROC MIXED procedure. The main effects were treatment (high, medium and low dose, and control), time, and their interactions.

Series [4] relates to Hereford-cross beef heifers. The series can be described thus: Example I: single intravenous dose of letrozole in heifers, ovarian ultrasonography (follicle and CL dynamics). The procedure: Hereford-cross beef heifers, 14 to 20 months of age and weighing between 295 and 450 kg, were chosen from a herd of 50 heifers maintained in outdoor corrals at the University of Saskatchewan Goodale Research Farm (52° North and 106° West). Heifers were fed alfalfa/grass hay and grain to gain approximately 1.3 Kg per day and had water ad libitum during the experimental period from July to October. Heifers were initially examined by transrectal ultrasonography (7.5 MHz linear-array transducer, Aloka SSD-900; Tokyo, Japan) to confirm that they were postpubertal by observing the presence of a CL [33].
as §1
The observations from ultrasound examination were recorded on a sketch sheet in which each ovary and its structures (CL and follicles ≧4 mm in diameter) were represented in size and location. Ovulation was defined as the disappearance of any follicle ≧8 mm between two consecutive daily examinations, and was confirmed by the subsequent development of a CL [33]. Follicular wave emergence was defined retrospectively as the day when the dominant follicle was first identified at a diameter of 4 or 5 mm. If the dominant follicle was not identified until it reached 6 or 7 mm, the previous day was considered day of the follicular wave emergence. The dominant follicle of a wave was defined as the largest antral follicle of that wave after deviation, and the first subordinate follicle as the second largest antral follicle of that wave. The day of onset of follicular and luteal regression was defined as the first day of an apparent constant decrease in follicular and luteal diameters, respectively.
as §2

The mark [5] stands for this setting: 85 μg/kg/day iv for 3 days, all three groups.

Marks after values point to notes of the source that are not given here.

`N#Cc1ccc(C(c2ccc(C#N)cc2)n2cncn2)cc1` [Letrozole, letrozole]: in series [1] (setting [5]), the “time after initiation of treatment by which plasma letrozole was elevated” value is at most 12 h. In addition, in series [1] (setting [5]), the “time by which plasma letrozole declined to approximately half peak values” was at most 108 h. The “time by which plasma letrozole reached peak levels” value in series [1] (setting [5]) was at most 60 h. Also, the “plasma letrozole concentration, overall mean” value in series [1] (Days 1 to 3) turned out to be 68.6 ± 4.79 ng/mL; in series [1] (Days 3 to 5), 43.9 ± 4.75 ng/mL; in series [1] (Days 5 to 7), 55.6 ± 4.75 ng/mL. Besides, the “mean circulating level of letrozole during the first 96 hours” value in series [1] (250 μg/kg, 3-day protocol) is 60.8 ± 3.36 ng/mL. In addition, the concentration at 96 hours in series [1] (female, bovine, plasma, intravenous, 85 μg/kg per day, 250 μg/kg divided in a 3-day regimen, read-out: mean concentration of letrozole in the circulation at 96 hours) turned out to be 51.6 ± 4.33 ng/mL. The “plasma estradiol concentrations compared to control heifers” value in series [2] is recorded as “not different”. The “plasma LH concentrations compared to saline-treated controls” value in series [3] (4-day period after single iv dose, P=0.01) is “higher”; in series [3] (first 12 hours following single iv dose, P=0.05), “higher”. Further, the “duration of elevated LH levels after treatment” value in series [3] (single iv dose) is given as “at least 4 days”. The “time after letrozole at which endogenous LH began to rise” value in series [3] (single iv dose) amounted to 2 h. The “number of heifers in which the extant dominant follicle ovulated” value is on record as 5/9 in series [4] (high dose 500 μg/kg iv), 7/10 in series [4] (low dose 125 μg/kg iv) and 5/10 in series [4] (medium dose 250 μg/kg iv). Further, the “dominant follicle diameter profile compared to control heifers” value in series [4] (single iv dose, all dose groups combined (n=29) vs saline controls, P<0.04) was “larger”. The “diameter to which the dominant follicle grew” value in series [4] (single iv dose, dose groups combined, control 9.7±0.55, mean±SEM) was 11.0±0.32 mm. Moreover, the “Treatment to onset of regression of extant dominant follicle” value in series [4] (single iv dose, doses combined, n=13, mean±SEM) is recorded as 8.7 ± 0.47^a days. For the same compound, the “Treatment to ovulation of extant dominant follicle” value in series [4] (single iv dose, doses combined, n=16, mean±SEM) is on record as 9.0 ± 0.42^a days. For the same compound, in series [4] (single iv dose, low-, medium-, high-dose combined, n=29, mean±SEM), the “Treatment to wave emergence” value is on record as 7.5 ± 0.27^a days.
